Data published in patent publication US8889903B2, “Synthesis of rare earth metal extractant” (Shin-Etsu Chemical Co., Ltd., priority 2010, dated 2014).
≈ marks a conversion by molar mass, not a printed value.

Assay: Solubility in water
Format: physicochemical
Experimental: If B/A<1.0, which means an excess of diglycolic anhydride for reaction, the desired dialkyl diglycol amic acid is obtained as the reaction product, in which unreacted diglycolic acid may remain. When solvent extraction is carried out using dialkyl diglycol amic acid having diglycolic acid left therein, no satisfactory separation ability is available and the solution becomes white turbid because clad is formed between organic phase and aqueous phase. […] This is because the diglycolic acid remaining along with the metal extractant, dialkyl diglycol amic acid forms a complex with a rare earth metal ion, inhibiting satisfactory extraction and separation. That is, diglycolic acid becomes an inhibitory factor to extraction. To obtain diglycolic acid-free dialkyl diglycol amic acid as the rare earth metal extractant capable of normal extraction and separation, the step of removing unreacted diglycolic acid is necessary as in the prior art method. Specifically, the water-soluble diglycolic acid must be removed by removing the synthesis medium and washing the reaction product with water. […] In order to use the dialkyl diglycol amic acid in crystallized form as the rare earth metal extractant, filtration and drying steps are needed. The process becomes less efficient because extra steps are necessary as compared with the range of 1.0≦B/A≦1.2.

CCCCCCCCN(CCCCCCCC)C(=O)COCC(=O)O [DODGAA, N,N-dioctyl-3-oxapentane-1,5-amic acid]
solubility in water: 6.2 µM (≈ 2.22 µg/mL)
